Patent US10131652B2, “Pyrimidinyloxy benzene derivatives as herbicides” (E. I. DU PONT DE NEMOURS AND COMPANY, priority 2014, dated 2018)

How the values were obtained:
Format in all cases: in vivo
[1] = system: barnyardgrass (Echinochloa crus-galli); experiment: Test D flooded paddy test plant response; details: Flood (flooded paddy test), visual rating on scale 0 to 100 (0 no effect, 100 complete control), 13 to 15 days
Description: (§1) Plant species in the flooded paddy test consisted of rice (Oryza sativa), small-flower umbrella sedge (Cyperus difformis), ducksalad (Heteranthera limosa), and bamyardgrass (Echinochloa crus-galli) grown to the 2-leaf stage for testing. At time of treatment, test pots were flooded to 3 cm above the soil surface, treated by application of test compounds directly to the paddy water, and then maintained at that water depth for the duration of the test. Treated plants and controls were maintained in a greenhouse for 13 to 15 days, after which time all species were compared to controls and visually evaluated. Plant response ratings, summarized in Table D, are based on a scale of 0 to 100 where 0 is no effect and 100 is complete control. A dash (-) response means no test result.

[2] = system: ducksalad (Heteranthera limosa); experiment: Test D flooded paddy test plant response; details: Flood (flooded paddy test), visual rating on scale 0 to 100 (0 no effect, 100 complete control), 13 to 15 days
Description: as §1

[3] = system: small-flower umbrella sedge (Cyperus difformis); experiment: Test D flooded paddy test plant response; details: Flood (flooded paddy test), visual rating on scale 0 to 100 (0 no effect, 100 complete control), 13 to 15 days
Description: as §1

rice (Oryza sativa) = experiment: Test D flooded paddy test plant response; details: Flood (flooded paddy test), visual rating on scale 0 to 100 (0 no effect, 100 complete control), 13 to 15 days
Description: as §1

[4] = system: barnyardgrass (Echinochloa crus-galli); experiment: Test F pre-/postemergence plant response; details: scale 0 to 100
In short: (§2)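 Herbicidal effect judged by eye against controls, scored 0–100 (complete control = 100). Applications: pre-emergence onto seeded silt loam, post-emergence onto 2–18 cm seedlings; greenhouse, 14–21 days.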

[5] = system: field bindweed (Convolvulus arvensis); experiment: Test F pre-/postemergence plant response; details: scale 0 to 100
In short: as §2

[6] = system: waterhemp (common waterhemp, Amaranthus rudis); experiment: Test F pre-/postemergence plant response; details: scale 0 to 100
In short: as §2

[7] = system: dayflower (Virginia (VA) dayflower, Commelina virginica); experiment: Test F pre-/postemergence plant response; details: scale 0 to 100
In short: as §2

[8] = system: hairy beggarticks (Bidens pilosa); experiment: Test F pre-/postemergence plant response; details: scale 0 to 100
In short: as §2

[9] = system: ragweed (common ragweed, Ambrosia elatior); experiment: Test F pre-/postemergence plant response; details: scale 0 to 100
In short: as §2

[10] = system: johnsongrass (Sorghum halepense); experiment: Test F pre-/postemergence plant response; details: scale 0 to 100
In short: as §2

[11] = system: giant foxtail (Setaria faberii); experiment: Test F pre-/postemergence plant response; details: scale 0 to 100
In short: as §2

[12] = system: yellow nutsedge (Cyperus esculentus); experiment: Test F pre-/postemergence plant response; details: scale 0 to 100
In short: as §2

[13] = system: morningglory (Ipomoea coccinea); experiment: Test F pre-/postemergence plant response; details: scale 0 to 100
In short: as §2

[14] = system: velvetleaf (Abutilon theophrasti); experiment: Test F pre-/postemergence plant response; details: scale 0 to 100
In short: as §2

CC(F)(F)c1cc(-c2ccccc2Oc2ncc(Cl)cn2)on1 [Compound 178]
Plant response rating, Barnyardgrass ([1]; 31 g ai/ha): 0
Plant response rating, Barnyardgrass ([1]; 62 g ai/ha): 0
Plant response rating, Barnyardgrass ([1]; 125 g ai/ha): 0
Plant response rating, Barnyardgrass ([1]; 250 g ai/ha): 0
Plant response rating, Ducksalad ([2]; 31 g ai/ha): 40
Plant response rating, Ducksalad ([2]; 62 g ai/ha): 65
Plant response rating, Ducksalad ([2]; 125 g ai/ha): 70
Plant response rating, Ducksalad ([2]; 250 g ai/ha): 70
Plant response rating, Sedge, Umbrella ([3]; 31 g ai/ha): 30
Plant response rating, Sedge, Umbrella ([3]; 62 g ai/ha): 60
Plant response rating, Sedge, Umbrella ([3]; 125 g ai/ha): 60
Plant response rating, Sedge, Umbrella ([3]; 250 g ai/ha): 75
Plant response rating, Rice (rice (Oryza sativa); 31 g ai/ha): 0
Plant response rating, Rice (rice (Oryza sativa); 62 g ai/ha): 0
Plant response rating, Rice (rice (Oryza sativa); 125 g ai/ha): 0
Plant response rating, Rice (rice (Oryza sativa); 250 g ai/ha): 0

Fc1ccc(Oc2ncc(Cl)cn2)c(-c2cc(C(F)(Cl)Cl)on2)c1 [Compound 221]
Plant response rating, Barnyardgrass ([1]; 62 g ai/ha): 40
Plant response rating, Barnyardgrass ([1]; 250 g ai/ha): 60
Plant response rating, Ducksalad ([2]; 62 g ai/ha): 80
Plant response rating, Ducksalad ([2]; 250 g ai/ha): 90
Plant response rating, Sedge, Umbrella ([3]; 62 g ai/ha): 80
Plant response rating, Sedge, Umbrella ([3]; 250 g ai/ha): 95
Plant response rating, Rice (rice (Oryza sativa); 62 g ai/ha): 15
Plant response rating, Rice (rice (Oryza sativa); 250 g ai/ha): 40
Plant response rating, Barnyardgrass ([4]; 16 g ai/ha Postemergence): 15
Plant response rating, Barnyardgrass ([4]; 31 g ai/ha Postemergence): 25
Plant response rating, Barnyardgrass ([4]; 62 g ai/ha Postemergence): 30
Plant response rating, Barnyardgrass ([4]; 125 g ai/ha Postemergence): 70
Plant response rating, Field Bindweed ([5]; 16 g ai/ha Postemergence): 70
Plant response rating, Field Bindweed ([5]; 31 g ai/ha Postemergence): 75
Plant response rating, Field Bindweed ([5]; 125 g ai/ha Postemergence): 80
Plant response rating, Waterhemp ([6]; 16 g ai/ha Postemergence): 90
Plant response rating, Waterhemp ([6]; 31 g ai/ha Postemergence): 98
Plant response rating, Waterhemp ([6]; 62 g ai/ha Postemergence): 95
Plant response rating, Waterhemp ([6]; 125 g ai/ha Postemergence): 100
Plant response rating, Dayflower, VA ([7]; 16 g ai/ha Postemergence): 60
Plant response rating, Dayflower, VA ([7]; 31 g ai/ha Postemergence): 70
Plant response rating, Dayflower, VA ([7]; 62 g ai/ha Postemergence): 80
Plant response rating, Dayflower, VA ([7]; 125 g ai/ha Postemergence): 80
Plant response rating, Beggarticks ([8]; 16 g ai/ha Postemergence): 50
Plant response rating, Beggarticks ([8]; 31 g ai/ha Postemergence): 60
Plant response rating, Beggarticks ([8]; 62 g ai/ha Postemergence): 70
Plant response rating, Beggarticks ([8]; 125 g ai/ha Postemergence): 70
Plant response rating, Ragweed ([9]; 16 g ai/ha Postemergence): 50
Plant response rating, Ragweed ([9]; 31 g ai/ha Postemergence): 60
Plant response rating, Ragweed ([9]; 62 g ai/ha Postemergence): 70
Plant response rating, Ragweed ([9]; 125 g ai/ha Postemergence): 80

Cc1cc(-c2ccccc2Oc2ncc(Cl)cn2)on1 [Compound 58]
Plant response rating, Barnyardgrass ([4]; 8 g ai/ha Postemergence): 0
Plant response rating, Barnyardgrass ([4]; 8 g ai/ha Preemergence): 0
Plant response rating, Barnyardgrass ([4]; 16 g ai/ha Postemergence): 0
Plant response rating, Barnyardgrass ([4]; 16 g ai/ha Preemergence): 0
Plant response rating, Barnyardgrass ([4]; 31 g ai/ha Postemergence): 0
Plant response rating, Barnyardgrass ([4]; 31 g ai/ha Preemergence): 0
Plant response rating, Barnyardgrass ([4]; 62 g ai/ha Postemergence): 0
Plant response rating, Barnyardgrass ([4]; 62 g ai/ha Preemergence): 0
Plant response rating, Barnyardgrass ([4]; 125 g ai/ha Postemergence): 5
Plant response rating, Barnyardgrass ([4]; 125 g ai/ha Preemergence): 15
Plant response rating, Field Bindweed ([5]; 8 g ai/ha Postemergence): 10
Plant response rating, Field Bindweed ([5]; 8 g ai/ha Preemergence): 0
Plant response rating, Field Bindweed ([5]; 16 g ai/ha Postemergence): 10
Plant response rating, Field Bindweed ([5]; 16 g ai/ha Preemergence): 0
Plant response rating, Field Bindweed ([5]; 31 g ai/ha Postemergence): 20
Plant response rating, Field Bindweed ([5]; 31 g ai/ha Preemergence): 0
Plant response rating, Field Bindweed ([5]; 62 g ai/ha Postemergence): 30
Plant response rating, Field Bindweed ([5]; 62 g ai/ha Preemergence): 0
Plant response rating, Field Bindweed ([5]; 125 g ai/ha Postemergence): 50
Plant response rating, Field Bindweed ([5]; 125 g ai/ha Preemergence): 0
Plant response rating, Johnsongrass ([10]; 8 g ai/ha Preemergence): 0
Plant response rating, Johnsongrass ([10]; 16 g ai/ha Preemergence): 0
Plant response rating, Johnsongrass ([10]; 31 g ai/ha Preemergence): 0
Plant response rating, Johnsongrass ([10]; 125 g ai/ha Preemergence): 20
Plant response rating, Johnsongrass ([10]; Preemergence): 0
Plant response rating, Waterhemp ([6]; 8 g ai/ha Postemergence): 65
Plant response rating, Waterhemp ([6]; 8 g ai/ha Preemergence): 20
Plant response rating, Waterhemp ([6]; 16 g ai/ha Postemergence): 60
Plant response rating, Waterhemp ([6]; 16 g ai/ha Preemergence): 75
Plant response rating, Waterhemp ([6]; 31 g ai/ha Postemergence): 65
Plant response rating, Waterhemp ([6]; 31 g ai/ha Preemergence): 75
Plant response rating, Waterhemp ([6]; 62 g ai/ha Postemergence): 80
Plant response rating, Waterhemp ([6]; 125 g ai/ha Postemergence): 90
Plant response rating, Waterhemp ([6]; 125 g ai/ha Preemergence): 100
Plant response rating, Waterhemp ([6]; Preemergence): 90
Plant response rating, Dayflower, VA ([7]; 8 g ai/ha Postemergence): 5
Plant response rating, Dayflower, VA ([7]; 8 g ai/ha Preemergence): 0
Plant response rating, Dayflower, VA ([7]; 16 g ai/ha Postemergence): 5
Plant response rating, Dayflower, VA ([7]; 16 g ai/ha Preemergence): 0
Plant response rating, Dayflower, VA ([7]; 31 g ai/ha Postemergence): 10
Plant response rating, Dayflower, VA ([7]; 31 g ai/ha Preemergence): 0
Plant response rating, Dayflower, VA ([7]; 62 g ai/ha Postemergence): 20
Plant response rating, Dayflower, VA ([7]; 125 g ai/ha Postemergence): 10
Plant response rating, Dayflower, VA ([7]; 125 g ai/ha Preemergence): 80
Plant response rating, Foxtail, Giant ([11]; 8 g ai/ha Preemergence): 0
Plant response rating, Foxtail, Giant ([11]; 16 g ai/ha Preemergence): 0
Plant response rating, Foxtail, Giant ([11]; 31 g ai/ha Preemergence): 0
Plant response rating, Foxtail, Giant ([11]; 62 g ai/ha Preemergence): 0
Plant response rating, Foxtail, Giant ([11]; 125 g ai/ha Preemergence): 40
Plant response rating, Beggarticks ([8]; 8 g ai/ha Postemergence): 40
Plant response rating, Beggarticks ([8]; 8 g ai/ha Preemergence): 0
Plant response rating, Beggarticks ([8]; 16 g ai/ha Postemergence): 40
Plant response rating, Beggarticks ([8]; 16 g ai/ha Preemergence): 0
Plant response rating, Beggarticks ([8]; 31 g ai/ha Postemergence): 50
Plant response rating, Beggarticks ([8]; 31 g ai/ha Preemergence): 0
Plant response rating, Beggarticks ([8]; 62 g ai/ha Postemergence): 50
Plant response rating, Beggarticks ([8]; 62 g ai/ha Preemergence): 10
Plant response rating, Beggarticks ([8]; 125 g ai/ha Postemergence): 65
Plant response rating, Beggarticks ([8]; 125 g ai/ha Preemergence): 20
Plant response rating, Nutsedge, Yellow ([12]; 8 g ai/ha Preemergence): 0
Plant response rating, Nutsedge, Yellow ([12]; 16 g ai/ha Preemergence): 0
Plant response rating, Nutsedge, Yellow ([12]; 31 g ai/ha Preemergence): 0
Plant response rating, Nutsedge, Yellow ([12]; 125 g ai/ha Preemergence): 0
Plant response rating, Nutsedge, Yellow ([12]; Preemergence): 0
Plant response rating, Morningglory ([13]; 8 g ai/ha Preemergence): 0
Plant response rating, Morningglory ([13]; 16 g ai/ha Preemergence): 0
Plant response rating, Morningglory ([13]; 31 g ai/ha Preemergence): 10
Plant response rating, Morningglory ([13]; 125 g ai/ha Preemergence): 10
Plant response rating, Morningglory ([13]; Preemergence): 10
Plant response rating, Velvetleaf ([14]; 8 g ai/ha Preemergence): 20
Plant response rating, Velvetleaf ([14]; 16 g ai/ha Preemergence): 70
Plant response rating, Velvetleaf ([14]; 31 g ai/ha Preemergence): 100
Plant response rating, Velvetleaf ([14]; 125 g ai/ha Preemergence): 100
Plant response rating, Velvetleaf ([14]; Preemergence): 100
Plant response rating, Ragweed ([9]; 8 g ai/ha Preemergence): 0
Plant response rating, Ragweed ([9]; 16 g ai/ha Preemergence): 0
Plant response rating, Ragweed ([9]; 31 g ai/ha Preemergence): 0
Plant response rating, Ragweed ([9]; 125 g ai/ha Preemergence): 75
Plant response rating, Ragweed ([9]; Preemergence): 25
